Experimental data from patent publication US20260242416A1, “ANTIMICROBIAL PEPTIDES” (priority 2023, published 2026).
Values after ≈ are worked out from the molar mass of the structure shown. Where a SMILES comes first, the peptide text is derived from it.

Assays:
[1] = tested on: E. coli ATCC 25922, Salmonella Enteritidis, S. aureus ATCC 29213; assay: Broth microdilution, panel result (at least one / all strains), Example 2; assay type: cell-based; design: key to inhibitory activity (asterisk): *Indicates inhibitory activity; details: for inhibitory activity (asterisk): Table 14, against at least one of E. coli ATCC 25922, Salmonella Enteritidis, S. aureus ATCC 29213
Method in brief: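 CLSI broth microdilution adapted for cationic peptides, in MHB with a final inoculum of 2-8×10^5 cfu/mL in polypropylene plates. Peptides were serially diluted from 128 down to 0.5 μg/mL and incubated 20-24 h at 37° C. MIC is the lowest concentration with no visible growth.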

[2] = tested on: S. aureus ATCC 29213; assay type: cell-based, Staphylococcus aureus; details: ATCC 29213
Method in brief: (§1)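 MIC taken as lowest peptide level showing no visible growth after 20-24 h at 37° C. Twofold series 128-0.5 μg/mL in Mueller-Hinton broth, polypropylene plates, final inoculum 2-8×10^5 cfu/mL, per CLSI with cationic-peptide adaptations.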

[3] = tested on: E. coli ATCC 25922; assay type: cell-based, Escherichia coli; details: ATCC 25922
Method in brief: as §1

[4] = tested on: Salmonella enterica serovar Enteritidis (human clinical isolate); assay type: cell-based; details: serovar Enteritidis (human clinical isolate)
Method in brief: as §1

Structure (SMILES)	MIC (ug/mL) S. aureus [2]	MIC (ug/mL) E. coli [3]	MIC (ug/mL) S. Enteritidis [4]	inhibitory activity (asterisk) [1]	spectrum of antimicrobial activity ([1]; panel of E. coli, Salmonella Enteritidis, S. aureus, up to 128 μg/mL)
CC[C@H](C)[C@H](NC(=O)CN)C(=O)N[C@@H](CC(C)C)C(=O)N[C@@H](CO)C(=O)NCC(=O)N[C@@H](CC(C)C)C(=O)N[C@@H](CC(C)C)C(=O)NCC(=O)N[C@@H](C)C(=O)NCC(=O)N[C@@H](CCCCN)C(=O)N[C@@H](CCCCN)C(=O)N[C@H](C(=O)N[C@H](C(=O)N[C@@H](CS)C(=O)O)C(C)C)[C@@H](C)CC [OdMa4, GILSGLLGAGKKIVC] (H-GILSGLLGAGKKIVC-OH; N-terminus and C-terminus assumed)	> 128 µg/mL	8 to 16 µg/mL	32 µg/mL (≈ 22.4 µM)	62.* GILSGLLGAGKKIVC	selective antimicrobial activity against the Gram-negative bacteria tested
CC[C@H](C)[C@H](NC(=O)CN)C(=O)N[C@@H](CC(C)C)C(=O)N[C@@H](CO)C(=O)NCC(=O)N[C@@H](CC(C)C)C(=O)N[C@@H](CC(C)C)C(=O)NCC(=O)N[C@@H](C)C(=O)NCC(=O)N[C@@H](CCCCN)C(=O)N[C@@H](CCCCN)C(=O)N[C@H](C(=O)N[C@H](C(=O)N[C@@H](CS)C(=O)NCC(=O)N[C@@H](CC(C)C)C(=O)N[C@@H](CO)C(=O)NCC(=O)N[C@@H](CC(C)C)C(=O)N[C@@H](CS)C(=O)O)C(C)C)[C@@H](C)CC [OdMa5] (H-GILSGLLGAGKKIVCGLSGLC-OH; N-terminus and C-terminus assumed)	8 to 16 µg/mL	8 to 16 µg/mL	64 to 128 µg/mL	1091.* GILSGLLGAGKKIVCGLSGLC	
CC[C@H](C)[C@H](NC(=O)[C@H](CCCCN)NC(=O)[C@H](CCCCN)NC(=O)CNC(=O)[C@@H](NC(=O)CNC(=O)[C@H](CC(C)C)NC(=O)[C@@H](NC(=O)CNC(=O)[C@H](CO)NC(=O)[C@H](CC(C)C)NC(=O)[C@H](CC(C)C)NC(=O)CN)C(C)C)C(C)C)C(=O)N[C@H](C(=O)N[C@@H](CS)C(=O)NCC(=O)N[C@@H](CC(C)C)C(=O)N[C@@H](CO)C(=O)NCC(=O)N[C@@H](CC(C)C)C(=O)N[C@@H](CS)C(=O)O)C(C)C [OdMa6] (H-GLLSGVLGVGKKIVCGLSGLC-OH; N-terminus and C-terminus assumed)	16 to 32 µg/mL	8 to 16 µg/mL	128 µg/mL (≈ 64.9 µM)	1092.* GLLSGVLGVGKKIVCGLSGLC	
CC(C)C[C@H](NC(=O)CNC(=O)[C@H](CO)NC(=O)[C@H](CC(C)C)NC(=O)CNC(=O)[C@H](CS)NC(=O)[C@H](CC(C)C)NC(=O)[C@@H](NC(=O)[C@H](CCCCN)NC(=O)[C@H](CCCCN)NC(=O)CNC(=O)[C@@H](NC(=O)CNC(=O)[C@H](CC(C)C)NC(=O)[C@@H](NC(=O)CNC(=O)[C@H](CO)NC(=O)[C@H](CC(C)C)NC(=O)[C@H](CC(C)C)NC(=O)CN)C(C)C)C(C)C)C(C)C)C(=O)N[C@@H](CS)C(=O)O [OdMa7] (H-GLLSGVLGVGKKVLCGLSGLC-OH; N-terminus and C-terminus assumed)	16 to 32 µg/mL	8 to 16 µg/mL	128 µg/mL (≈ 64.9 µM)	1093.* GLLSGVLGVGKKVLCGLSGLC	
CC[C@H](C)[C@H](NC(=O)CNC(=O)[C@H](CO)NC(=O)[C@@H](NC(=O)[C@H](CC(C)C)NC(=O)CN)[C@@H](C)CC)C(=O)N[C@@H](CC(C)C)C(=O)NCC(=O)N[C@@H](C)C(=O)NCC(=O)N[C@@H](CCCCN)C(=O)N[C@@H](CCCCN)C(=O)N[C@H](C(=O)N[C@@H](CC(C)C)C(=O)N[C@@H](CS)C(=O)O)C(C)C [OdMa9, GLISGILGAGKKVLC] (H-GLISGILGAGKKVLC-OH; N-terminus and C-terminus assumed)	> 128 µg/mL	64 to 128 µg/mL	128 µg/mL (≈ 89.6 µM)	68.* GLISGILGAGKKVLC	
CC[C@H](C)[C@H](NC(=O)CNC(=O)[C@H](CO)NC(=O)[C@@H](NC(=O)[C@H](CC(C)C)NC(=O)CN)[C@@H](C)CC)C(=O)N[C@@H](CC(C)C)C(=O)NCC(=O)N[C@@H](C)C(=O)NCC(=O)N[C@@H](CCCCN)C(=O)N[C@@H](CCCCN)C(=O)N[C@H](C(=O)N[C@@H](CC(C)C)C(=O)N[C@@H](CS)C(=O)NCC(=O)N[C@@H](CC(C)C)C(=O)N[C@@H](CO)C(=O)NCC(=O)N[C@@H](CC(C)C)C(=O)N[C@@H](CS)C(=O)O)C(C)C [OdMa10] (H-GLISGILGAGKKVLCGLSGLC-OH; N-terminus and C-terminus assumed)	64 to 128 µg/mL	16 to 32 µg/mL	> 128 µg/mL	1094.* GLISGILGAGKKVLCGLSGLC	

Further lines, with some results ahead:

MIC (ug/mL) S. aureus [2]	MIC (ug/mL) E. coli [3]	MIC (ug/mL) S. Enteritidis [4]	Structure (SMILES)	inhibitory activity (asterisk) [1]	spectrum of antimicrobial activity ([1]; panel of E. coli, Salmonella Enteritidis, S. aureus, up to 128 μg/mL)
8 to 16 µg/mL	8 µg/mL (≈ 4.09 µM)	32 to 64 µg/mL	CC[C@H](C)[C@H](NC(=O)CN)C(=O)N[C@@H](CC(C)C)C(=O)N[C@@H](CO)C(=O)NCC(=O)N[C@@H](CC(C)C)C(=O)N[C@@H](CC(C)C)C(=O)NCC(=O)N[C@@H](C)C(=O)NCC(=O)N[C@@H](CCCCN)C(=O)N[C@@H](CCCCN)C(=O)N[C@@H](CC(C)C)C(=O)N[C@@H](C)C(=O)N[C@@H](CS)C(=O)NCC(=O)N[C@@H](CC(C)C)C(=O)N[C@H](C(=O)NCC(=O)N[C@@H](CC(C)C)C(=O)N[C@@H](CS)C(=O)O)[C@@H](C)CC [OdTo1] (H-GILSGLLGAGKKLACGLIGLC-OH; N-terminus and C-terminus assumed)	153.* GILSGLLGAGKKLACGLIGLC	
> 128 µg/mL	32 µg/mL (≈ 15.5 µM)	> 128 µg/mL	CC[C@H](C)[C@H](NC(=O)CN)C(=O)N[C@@H](Cc1ccccc1)C(=O)NCC(=O)NCC(=O)N[C@@H](Cc1c[nH]cn1)C(=O)N[C@@H](CC(C)C)C(=O)N[C@@H](CCCCN)C(=O)N[C@H](C(=O)NCC(=O)N[C@@H](CCCCN)C(=O)N[C@@H](CCCCN)C(=O)N[C@H](C(=O)N[C@@H](C)C(=O)N[C@@H](CS)C(=O)NCC(=O)N[C@@H](CC(C)C)C(=O)N[C@@H](CO)C(=O)NCC(=O)N[C@@H](CC(C)C)C(=O)N[C@@H](CS)C(=O)O)[C@@H](C)CC)C(C)C [OdTo2] (H-GIFGGHLKVGKKIACGLSGLC-OH; N-terminus and C-terminus assumed)	139.* GIFGGHLKVGKKIACGLSGLC	
> 128 µg/mL	32 µg/mL (≈ 15.5 µM)	> 128 µg/mL	CC[C@H](C)[C@H](NC(=O)CN)C(=O)N[C@@H](Cc1ccccc1)C(=O)NCC(=O)NCC(=O)N[C@@H](CC(C)C)C(=O)N[C@@H](CC(C)C)C(=O)N[C@@H](CCCCN)C(=O)N[C@@H](CCC(=O)O)C(=O)NCC(=O)N[C@@H](CCCCN)C(=O)N[C@@H](CCCCN)C(=O)N[C@H](C(=O)N[C@@H](C)C(=O)N[C@@H](CS)C(=O)NCC(=O)N[C@@H](CC(C)C)C(=O)N[C@@H](CO)C(=O)NCC(=O)N[C@@H](CC(C)C)C(=O)N[C@@H](CS)C(=O)O)[C@@H](C)CC [OdTo3] (H-GIFGGLLKEGKKIACGLSGLC-OH; N-terminus and C-terminus assumed)	141.* GIFGGLLKEGKKIACGLSGLC	
